Values quoted from earlier work in patent US20240100069A1, “Methods and Compositions for Treating Amyotrophic Lateral Sclerosis” (Amylyx Pharmaceuticals, Inc., priority 2022, published 2024).

Legend:
[1] = tested on: G393A SODI mouse model of ALS
[2] = in vivo
CYP 1A2 = target: T1, CYP 1A2 (Homo sapiens, UniProt P05177); settings: at 20 times the intended clinical concentration (Cmax)
T1 sequence (P05177 1-516): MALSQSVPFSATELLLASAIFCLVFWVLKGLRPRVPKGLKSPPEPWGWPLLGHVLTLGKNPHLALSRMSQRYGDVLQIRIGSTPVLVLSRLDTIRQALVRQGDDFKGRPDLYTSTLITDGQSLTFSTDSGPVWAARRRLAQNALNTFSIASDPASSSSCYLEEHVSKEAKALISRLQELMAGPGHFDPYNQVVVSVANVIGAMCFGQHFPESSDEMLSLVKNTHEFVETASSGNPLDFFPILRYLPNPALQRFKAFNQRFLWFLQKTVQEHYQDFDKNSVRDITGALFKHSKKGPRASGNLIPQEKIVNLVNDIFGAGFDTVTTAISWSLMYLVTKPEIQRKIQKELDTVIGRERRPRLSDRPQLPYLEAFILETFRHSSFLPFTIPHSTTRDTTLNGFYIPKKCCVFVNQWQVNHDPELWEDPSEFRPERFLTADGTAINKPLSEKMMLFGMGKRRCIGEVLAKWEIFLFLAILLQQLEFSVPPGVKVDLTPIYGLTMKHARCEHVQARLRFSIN

CYP 2D6 = CYP 2D6 (Homo sapiens, UniProt P10635); settings: at 20 times the intended clinical concentration (Cmax)
CYP 2D6, sequence (P10635 whole entry): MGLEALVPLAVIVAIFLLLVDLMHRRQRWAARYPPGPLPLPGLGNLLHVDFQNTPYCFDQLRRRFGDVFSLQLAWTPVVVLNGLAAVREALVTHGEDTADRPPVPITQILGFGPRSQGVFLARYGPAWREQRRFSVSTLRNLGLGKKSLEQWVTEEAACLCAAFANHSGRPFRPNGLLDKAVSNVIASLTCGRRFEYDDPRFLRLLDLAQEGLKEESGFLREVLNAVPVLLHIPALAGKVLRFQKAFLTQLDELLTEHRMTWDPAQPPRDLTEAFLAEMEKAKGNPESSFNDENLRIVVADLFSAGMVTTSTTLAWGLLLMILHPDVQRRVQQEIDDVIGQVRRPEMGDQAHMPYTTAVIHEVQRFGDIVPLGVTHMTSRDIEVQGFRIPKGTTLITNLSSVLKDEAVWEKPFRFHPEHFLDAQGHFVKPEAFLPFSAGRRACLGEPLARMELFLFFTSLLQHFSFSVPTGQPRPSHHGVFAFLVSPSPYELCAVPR

O=C(O)CCCc1ccccc1 [Phenylbutyrate, sodium phenylbutyrate]
survival in in vivo models [1]: increase survival

C[C@H](CCC(=O)NCCS(=O)(=O)O)[C@H]1CC[C@H]2[C@@H]3[C@@H](O)C[C@@H]4C[C@H](O)CC[C@]4(C)[C@H]3CC[C@]12C [TURSO, tauroursodeoxycholic acid]
most common adverse reactions reported (abdominal discomfort, abdominal pain, diarrhea, nausea, pruritus, rash), frequency [2]: ≥ 1%

Phenylacetylacetate
inhibition of CYP 1A2 (CYP 1A2): inhibitory
inhibition of CYP 2D6 (CYP 2D6): inhibitory
